Patent US20200163332A1, “METHOD OF IMPROVING CROP SAFETY” (Bayer CropScience LP, priority 2017, published 2020)
Values joined by “and” are separate entries in the source; they are usually repeats but may differ in a detail not shown here. Identical values can stand only once. Like-named read-outs stand apart in the source and are kept apart here.

Assays:
[1] = tested on: Soybean seeds of the variety Williams 82; settings: with ILEVO 0.15 mg ai per seed, versus ILEVO alone, CaCl2•2 H2O 10.000 mM, about 10 days after planting
Experimental: All solutions were pH adjusted to pH 5.6-6.2. In addition, a seed treatment was prepared with a cobalt and molybdenum combination (“CoMo”) containing the cobalt chloride and sodium molybdate applied at the respective doses shown in Table 9. A commercial zinc solution was also applied as a seed treatment. “Macro”, “Micro” and “Complete” nutrient solution cocktails which combined all the respective nutrients from Table 9 into one nutrient solution were included as seed treatments.
About 10 days after planting the treated seeds, the emerging seedlings were analyzed to determine their average plant height and average unifoliate leaf area.

[2] = tested on: Soybean seeds of the variety Williams 82; settings: for Average Area (Total Leaf Area) / Average Height (Plant Height): 15 Days after Planting
Experimental: Plant heights and total leaf area were determined 15 days after planting. The total leaf area was calculated by adding the unifoliate leaf area and the trifoliate leaf area of a soybean plant. Between 11 and 15 replicates were evaluated for each measurement. Average values along with their standard errors are reported.

[3] = tested on: Soybean seeds of the variety Williams 82; assay: Example A: soybean seed treatment with antioxidants, with or without Fluopyram; cotyledon total and healthy area; settings: for Average Cotyledon Area (mm^2) Growth Promotion with Antioxidant / Increase in Healthy Area % Difference: antioxidant at effective concentration versus no antioxidant; for Average Cotyledon Area / Average % Healthy Area / Average Healthy Area: after 10 days
[4] = ILEVO 0.15 mg ai per seed + 10 mM CaCl2•2 H2O
[5] = ILEVO 0.15 mg ai per seed + 75 mM CaCl2•2 H2O
[6] = ILEVO 0.15 mg ai per seed + 150 mM CaCl2•2 H2O
[7] = calcium chloride added to ILEVO seed treatment versus ILEVO alone, effect increased at higher concentrations
[8] = two additional soybean varieties besides Williams 82
[9] = UTC seeds (no FLU) plus antioxidant at effective concentration (Beta-Carotene 200 μM, Co-enzyme Q10 3 μM, Meso-Zeaxanthin 250 ppm, L-ascorbic acid 800 ppm, alpha tocopherol phosphate disodium 100 ppm)
[10] = UTC seeds (no FLU) plus antioxidant at effective concentration (as in E7)
[11] = seeds treated with FLU 0.15 mg ai/seed plus antioxidant at effective concentration (200 μM, 3 μM, 250 ppm, 800 ppm, 100 ppm as in E4)
[12] = seeds treated with FLU 0.15 mg ai/seed plus antioxidant at effective concentration (Beta-Carotene 200 μM, Co-enzyme Q10 3 μM, Meso-Zeaxanthin 250 ppm, L-ascorbic acid 800 ppm, alpha tocopherol phosphate disodium 100 ppm)
[13] = FLU 0.15 mg ai/seed alone (antioxidant 0 μM / 0 ppm; control of the respective antioxidant series)

[Ca+2].[Cl-].[Cl-] [CaCl2•2 H2O, calcium chloride]
average plant height ([1]; FIG. 1): significantly increased
average unifoliate leaf area ([1]; FIG. 2): significantly increased
Average Area (Total Leaf Area) [2, 4]: 46.70 cm^2
Average Height (Plant Height) [2, 4]: 12.93 cm
Average Area (Total Leaf Area) [2, 5]: 53.89 cm^2
Average Height (Plant Height) [2, 5]: 13.69 cm
Average Area (Total Leaf Area) [2, 6]: 53.03 cm^2
Average Height (Plant Height) [2, 6]: 14.31 cm
height of the soybean plants [2, 7]: significantly increased
total leaf area of the soybean plants [2, 7]: significantly increased
effect on height of soybean plants treated with ILEVO [2, 8]: positive effect
effect on leaf area of soybean plants treated with ILEVO [2, 8]: positive effect

COC1=C(OC)C(=O)C(C/C=C(\C)CC/C=C(\C)CC/C=C(\C)CC/C=C(\C)CC/C=C(\C)CC/C=C(\C)CC/C=C(\C)CC/C=C(\C)CC/C=C(\C)CCC=C(C)C)=C(C)C1=O [Co-enzyme Q10]
Average Cotyledon Area (mm^2) Growth Promotion with Antioxidant ([3]; FLU-treated seeds): 19.49 mm^2
Increase in Healthy Area % Difference ([3]; FLU-treated seeds): 10.25%
Average Cotyledon Area [3, 9]: 416.55 mm^2
Average % Healthy Area [3, 10]: 100.00%
Average Healthy Area [3, 10]: 416.55 mm^2
Average Cotyledon Area (mm^2) Growth Promotion with Antioxidant ([3]; UTC seeds (no FLU)): 47.57 mm^2
Increase in Healthy Area % Difference ([3]; UTC seeds (no FLU)): 0.00%
Average % Healthy Area [3, 11]: 76.54%
Average Healthy Area [3, 11]: 240.72 mm^2
Average Cotyledon Area [3, 12]: 312.31 mm^2

O=C(NCCc1ncc(C(F)(F)F)cc1Cl)c1ccccc1C(F)(F)F [FLU, Fluopyram, reference compound]
Average % Healthy Area [3, 13]: 59.63% and 67.93% and 68.20% and 60.08% and 66.29%
Average Cotyledon Area [3, 13]: 252.85 mm^2 and 307.56 mm^2 and 290.71 mm^2 and 237.73 mm^2 and 292.81 mm^2
Average Healthy Area [3, 13]: 153.20 mm^2 and 210.37 mm^2 and 199.35 mm^2 and 142.71 mm^2 and 195.10 mm^2

Meso-Zeaxanthin
Average Cotyledon Area (mm^2) Growth Promotion with Antioxidant ([3]; FLU-treated seeds): 78.23 mm^2
Increase in Healthy Area % Difference ([3]; FLU-treated seeds): 10.05%
Average Cotyledon Area [3, 9]: 350.59 mm^2
Average % Healthy Area [3, 10]: 99.66%
Average Healthy Area [3, 10]: 349.18 mm^2
Average Cotyledon Area (mm^2) Growth Promotion with Antioxidant ([3]; UTC seeds (no FLU)): 30.66 mm^2
Increase in Healthy Area % Difference ([3]; UTC seeds (no FLU)): 4.59%
Average % Healthy Area [3, 11]: 69.68%
Average Healthy Area [3, 11]: 230.46 mm^2
Average Cotyledon Area [3, 12]: 331.07 mm^2
